Measured values published in patent US7531320B2, “Modulation of β-catenin/TCF-activated transcription” (priority 2003, dated 2009).

Assays:
CBP = target: T1, CBP (Homo sapiens, UniProt Q92793); assay: COMPOUND 2 streptavidin-agarose affinity pull-down from SW480 nuclear extracts; format: binding; settings: SW480 nuclear extract, immunoblotting with anti-CBP
T1 construct: endogenous in cells; host or cells: SW480 nuclear extract
Description: FIG. 1. COMPOUND 1 inhibits β-catenin/TCF transcription. • A(i) and A(ii). Structures of COMPOUND 1, COMPOUND 2, COMPOUND 3, COMPOUND 4, and COMPOUND 5. • B(i) and B(ii). […] SW480 cells (10^5), (FIG. 1B(i)), were transfected with β-catenin/TCF luciferase construct. Cells were treated with COMPOUND 1 (1-64 μM). 24 hours post treatment lysates were prepared and subjected to dual luciferase assay. The data is represented in different form in FIG. 1B(ii). • C. COMPOUND 1 has no effect on NFAT reporter construct. Stably transfected Jurkat cells, right panel, with an NFAT reporter construct, were stimulated with PMA (10 ng/ml)/lonomycin (1 μg/ml), and treated with COMPOUND 1 (0.781-50 μM). 24 hours post treatment lysates were prepared and subjected to dual luciferase assay. All experiments were performed in duplicate and the values plotted as means +/−standard deviation. • D. CBP is the molecular target of COMPOUND 1. Nuclear extracts of SW480 cells were incubated with streptavidin-agarose beads coated with COMPOUND 2 (25 μM). Beads were washed 3 times and the eluted were subjected to gel electrophoresis and immunoblotting, with anti-CBP antibodies. […] The lysates were desalted using G-25 1 cc columns (Pharmacia) to remove the unbound ^14C-labeled-COMPOUND 1, and ^14C-labeled-COMPOUND 1 incorporation was measured. […]

CBP (1-111) = target: T2, CBP (1-111) (Mus musculus, UniProt P45481); assay: Pull-down of CBP deletion constructs on COMPOUND 2 coated beads, competition with excess COMPOUND 1; format: binding; settings: E. coli expressed 6x-His protein, 100 μM COMPOUND 2
T2 construct: 6xHis (C); HSV tag (C); expressed in transfected cells

p300 (1-111) = target: T3, p300 (1-111) (Homo sapiens, UniProt Q09472); assay: Pull-down of p300 deletion constructs on COMPOUND 2 coated beads, competition with excess COMPOUND 1; format: binding; settings: E. coli expressed 6x-His protein, 100 μM COMPOUND 2
T3 construct: 6xHis (C); HSV tag (C); expressed in transfected cells
Description: FIG. 2. The first 111 amino acids of CBP, but not p300, specifically bind COMPOUND 1. • A. Schematic representation of the wild-type and deletion constructs for CBP. • B. CBP (1-111) contains the minimal binding domain of COMPOUND 1. Expression levels of CBP deletion constructs in SW480 cells are shown (upper panel). 10 μg of total protein was subjected to gel electrophoresis and subjected to immunoblotting using anti-His antibodies. Whole cell lysates of SW480 cells expressing CBP deletion constructs were bound to streptavidin-agarose beads coated with 100 μM of COMPOUND 2. The bound fractions were subjected to gel electrophoresis and immunoblotting using anti-His antibodies (lower panel). Arrows point to constructs which remained bound to COMPOUND 2 coated beads. • C. […] CBP deletion constructs, CBP(1-111),CBP (1-211), and CBP (1-351) and p300 deletion constructs, p300 (1-111), p300 (1-211), and p300 (1-351) were transfected into SW480 cells. Whole cell lysates were incubated with streptavidin-agarose beads or streptavidin-agarose beads coated with 100 μM COMPOUND 2 (lower panel). The binding of CBP constructs (1-111,1-211, and 1-351) and p300 constructs (1-111,1-211, and 1-351) to the beads was challenged with excess COMPOUND 1 (150 μM). • D. CBP (1-111) binds to COMPOUND 1 in a phosphorylation independent manner. […]

[1] = test system: nuclear β-catenin in SW480 cells; assay: β-catenin immunofluorescence and western blot localization in SW480 cells; format: cell-based, human; settings: data not shown
Description: FIG. 4. COMPOUND 1 decreases nuclear β-catenin • A. β-catenin immunofluorescence microscopy. Log phase SW480 (left) and HCT116 (right) cells were fixed and stained with either anti-β-catenin red (upper panel, A) or anti-CBP (upper panel, B) green. The center panel represents the superimposed β-catenin and CBP in SW480 (left) and HCT116 (right) cells. […] 25 μg of total protein from the cell extracts of SW480 cells with or without 24 hr treatment of COMPOUND1 was used for detection of cytosolic and nuclear β-catenin.
Immunofluorescence was used to examine the localization of CBP and β-catenin in SW480 and HCT116 cells treated with COMPOUND 1 (25 μM) or control (0.5% DMSO). Cells at log phase were seeded and after 24 hours, the cells were treated with COMPOUND 1 or control. 24 hours post treatment, cells were fixed. The coverslips were incubated with antibodies raised against CBP (A-22) (Santa Cruz Biotechnology) and β-catenin (Transduction Laboratories), respectively. The slides were examined using a Nikon PCM 2000 Laser Scanning Confocal Microscope after the secondary antibodies conjugated to either FITC or TRITC (Jackson ImmunoResearch, Westgrove, Pa.) were applied.
The subcellular distribution of β-catenin and CBP was examined in order to determine whether the localization of either was affected by COMPOUND 1. […]

293 = settings: 293, Renal
Description: (§1) Cytotoxicity of COMPOUND 3 (an analog of COMPOUND 1, FIG. 1A) and other anticancer therapeutics were measured using cancer cells with various origins.

A549 = settings: A549, Lung
Description: as §1

HL60 = settings: HL60, Leukemia
Description: as §1

MCF7 = settings: MCF7, Breast
Description: as §1

PC3 = settings: PC3, Prostate
Description: as §1

RPM17951 = settings: RPM17951, Melanoma
Description: as §1

[2] = Metabolism in rat liver microsome (HPLC/MS); format: in vitro ADME; settings: 5 minutes to 1 hour
Description: (§2) FIG. 10. Metabolism analysis of COMPOUND3 • A. The diode Array trace (upper panel) and the total ion current (lower panel) for COMPOUND3 and metabolites thereof in rat. • B. The diode Array trace (upper panel) and the total ion current (lower panel) for COMPOUND3 and metabolites thereof in human.
(§3) Metabolism of COMPOUND 3 was analyzed by incubating the compound with rat or human liver microsome for 5 minutes to 1 hour, fractioning extracts of treated microsome through HPLC and subjecting the fractions to MS analysis.

[3] = Metabolism in human liver microsome (HPLC/MS); format: in vitro ADME; settings: 5 minutes to 1 hour
Description: as §2, §3

[4] = Bioavailability study in rat; format: in vivo; settings: i.v and p.o, 10 mg/kg, 20% Tween 80
Description: Bioavailability of COMPOUND 3, COMPOUND 4 and COMPOUND 5 was studied in mouse and rat. All the compounds were administered (i.v and p.o, 10 mg/kg) using the same vehicle (i.e., 20% Tween 80).

T2 sequence (P45481 1-110): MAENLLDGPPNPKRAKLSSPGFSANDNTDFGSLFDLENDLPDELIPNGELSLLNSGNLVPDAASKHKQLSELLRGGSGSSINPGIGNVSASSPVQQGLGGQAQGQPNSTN
T1 sequence (Q92793 whole entry): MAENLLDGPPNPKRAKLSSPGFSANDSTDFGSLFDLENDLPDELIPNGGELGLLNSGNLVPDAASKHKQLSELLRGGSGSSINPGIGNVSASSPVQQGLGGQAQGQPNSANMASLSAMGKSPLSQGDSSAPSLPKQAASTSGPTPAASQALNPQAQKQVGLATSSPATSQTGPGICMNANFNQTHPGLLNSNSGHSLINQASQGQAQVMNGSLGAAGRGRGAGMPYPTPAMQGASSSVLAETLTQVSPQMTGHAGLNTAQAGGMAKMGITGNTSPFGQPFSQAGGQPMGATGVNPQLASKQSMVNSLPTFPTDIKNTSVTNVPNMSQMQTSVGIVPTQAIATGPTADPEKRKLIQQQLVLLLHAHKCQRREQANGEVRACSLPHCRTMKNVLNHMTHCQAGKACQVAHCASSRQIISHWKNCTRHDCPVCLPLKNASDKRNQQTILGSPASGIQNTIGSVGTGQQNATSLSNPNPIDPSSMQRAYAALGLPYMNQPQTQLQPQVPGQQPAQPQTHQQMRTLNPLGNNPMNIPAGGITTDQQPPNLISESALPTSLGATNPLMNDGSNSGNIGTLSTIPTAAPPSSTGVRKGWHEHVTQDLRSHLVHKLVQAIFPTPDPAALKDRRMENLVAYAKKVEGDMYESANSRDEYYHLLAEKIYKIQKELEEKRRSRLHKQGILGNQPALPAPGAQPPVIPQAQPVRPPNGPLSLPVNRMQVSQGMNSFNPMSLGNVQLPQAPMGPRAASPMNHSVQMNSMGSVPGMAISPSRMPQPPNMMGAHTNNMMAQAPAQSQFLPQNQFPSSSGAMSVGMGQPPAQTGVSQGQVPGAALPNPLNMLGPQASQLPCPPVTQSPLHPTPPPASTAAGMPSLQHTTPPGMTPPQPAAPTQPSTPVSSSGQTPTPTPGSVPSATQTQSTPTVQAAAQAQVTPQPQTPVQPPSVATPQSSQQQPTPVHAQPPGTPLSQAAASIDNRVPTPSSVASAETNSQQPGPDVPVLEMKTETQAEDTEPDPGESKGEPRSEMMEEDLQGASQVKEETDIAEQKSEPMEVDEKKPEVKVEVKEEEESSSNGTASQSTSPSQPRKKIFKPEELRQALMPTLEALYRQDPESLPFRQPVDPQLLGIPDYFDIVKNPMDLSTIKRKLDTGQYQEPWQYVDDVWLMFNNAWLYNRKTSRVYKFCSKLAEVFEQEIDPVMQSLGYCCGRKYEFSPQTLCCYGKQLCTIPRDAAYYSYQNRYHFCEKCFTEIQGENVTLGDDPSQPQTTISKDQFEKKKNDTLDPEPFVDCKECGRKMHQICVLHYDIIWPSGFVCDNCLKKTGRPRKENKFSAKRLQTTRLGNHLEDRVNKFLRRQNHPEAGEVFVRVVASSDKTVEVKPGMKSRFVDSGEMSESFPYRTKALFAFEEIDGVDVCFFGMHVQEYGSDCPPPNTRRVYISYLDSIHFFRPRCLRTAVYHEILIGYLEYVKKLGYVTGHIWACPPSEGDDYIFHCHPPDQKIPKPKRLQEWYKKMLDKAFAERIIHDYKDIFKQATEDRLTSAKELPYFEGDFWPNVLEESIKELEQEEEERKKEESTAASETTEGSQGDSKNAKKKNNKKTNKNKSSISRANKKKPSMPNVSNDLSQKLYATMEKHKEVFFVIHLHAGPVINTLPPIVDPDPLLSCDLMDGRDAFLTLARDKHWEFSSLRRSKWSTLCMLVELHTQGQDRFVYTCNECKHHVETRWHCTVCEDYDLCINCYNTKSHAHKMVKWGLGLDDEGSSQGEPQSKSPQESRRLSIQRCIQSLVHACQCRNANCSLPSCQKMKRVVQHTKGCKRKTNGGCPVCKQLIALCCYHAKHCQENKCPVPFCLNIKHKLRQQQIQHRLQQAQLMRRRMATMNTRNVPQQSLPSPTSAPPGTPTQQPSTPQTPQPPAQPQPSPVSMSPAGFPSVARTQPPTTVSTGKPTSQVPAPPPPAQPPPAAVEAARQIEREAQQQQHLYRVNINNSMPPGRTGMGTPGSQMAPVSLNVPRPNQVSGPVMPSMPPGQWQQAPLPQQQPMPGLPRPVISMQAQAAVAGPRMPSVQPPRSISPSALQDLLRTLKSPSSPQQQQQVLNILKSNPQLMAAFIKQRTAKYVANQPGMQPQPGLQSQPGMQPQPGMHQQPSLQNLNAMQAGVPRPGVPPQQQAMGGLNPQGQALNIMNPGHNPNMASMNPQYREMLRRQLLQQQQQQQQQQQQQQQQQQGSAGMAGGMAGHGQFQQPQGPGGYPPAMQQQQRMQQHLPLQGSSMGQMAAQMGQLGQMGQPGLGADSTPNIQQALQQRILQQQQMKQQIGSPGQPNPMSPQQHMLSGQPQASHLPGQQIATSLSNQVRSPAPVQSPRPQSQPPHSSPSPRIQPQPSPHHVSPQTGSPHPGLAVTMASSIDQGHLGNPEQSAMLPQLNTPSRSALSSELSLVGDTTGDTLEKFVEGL
T3 sequence (Q09472 1-117): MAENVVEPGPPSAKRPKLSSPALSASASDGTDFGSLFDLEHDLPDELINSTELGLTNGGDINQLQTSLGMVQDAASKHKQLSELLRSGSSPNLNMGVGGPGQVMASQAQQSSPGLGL

O=C(CCCCCNC(=O)CCCCC1SCC2NC(=O)NC21)NCCCCCC(=O)NCc1cccc(CNC(=O)N2CCC(=O)N3C(Cc4ccc(O)cc4)C(=O)N(Cc4cccc5ccccc45)CC23)c1 (stereo not shown) [COMPOUND 2]
Major band retained on COMPOUND 2 affinity column (CBP): identified by immunoblotting as the CREB Binding Protein (CBP) | Binding of purified CBP (1-111) to COMPOUND 2 beads (CBP (1-111)): specific binding | Binding of purified p300 (1-111) to COMPOUND 2 beads (p300 (1-111)): not p300 (1-111)

CCC(=C/[C@H](C)C/C=C/C(C)=C/[C@@H](C)C(=O)[C@@H](C)[C@H](O)[C@@H](C)C/C(C)=C/C(=O)O)/C=C/[C@@H]1OC(=O)C=C[C@@H]1C [leptomycin B, reference compound]
Effect of nuclear transport inhibitor on COMPOUND 1-induced β-catenin transport [1]: eliminated COMPOUND 1-induced cytoplasmic transport of β-catenin

CN1CC(=O)N2C(Cc3ccc(O)cc3)C(=O)N(Cc3cccc4ccccc34)CC2N1C(=O)NCc1ccccc1 (stereo not shown) [COMPOUND 3]
Cytotoxicity 293: 0.731 µg/mL | Cytotoxicity (A549): 1.386 µg/mL | Cytotoxicity (HL60): 1.243 µg/mL | Cytotoxicity (MCF7): 7.355 µg/mL | Cytotoxicity (PC3): 1.207 µg/mL | Cytotoxicity (RPM17951): 0.936 µg/mL | Metabolites observed [2]: Several metabolites (e.g., M1, M2, M3) were observed | Metabolites observed [3]: Several metabolites (e.g., M1, M2, M3) were observed | Bioavailability [4]: about 24%
